According to patent US20250288570A1, “TREATMENT OF NEUROLOGICAL DISORDERS” (Praxis Precision Medicines, Inc., priority 2022, published 2025):
Entries after “also recorded” stand apart in the source; their conditions may differ.

Columns and labels:
human Nav1.6 [1] = target: T1, human Nav1.6 (Homo sapiens, UniProt Q9UQD0); assay: ATX-II activated late (persistent) INa block, automated patch clamp in HEK cells; type: cell-based; conditions: for inhibition of and preference for persistent INa (in words): hNav1.6; for Persistent INa Hill slope: hNav1.6 in HEK cells
T1 construct: HEK-293 cell lines stably expressing human Nav1.6 (NP_055006) were used; expressed in transfected cells
T1 sequence (Q9UQD0 whole entry): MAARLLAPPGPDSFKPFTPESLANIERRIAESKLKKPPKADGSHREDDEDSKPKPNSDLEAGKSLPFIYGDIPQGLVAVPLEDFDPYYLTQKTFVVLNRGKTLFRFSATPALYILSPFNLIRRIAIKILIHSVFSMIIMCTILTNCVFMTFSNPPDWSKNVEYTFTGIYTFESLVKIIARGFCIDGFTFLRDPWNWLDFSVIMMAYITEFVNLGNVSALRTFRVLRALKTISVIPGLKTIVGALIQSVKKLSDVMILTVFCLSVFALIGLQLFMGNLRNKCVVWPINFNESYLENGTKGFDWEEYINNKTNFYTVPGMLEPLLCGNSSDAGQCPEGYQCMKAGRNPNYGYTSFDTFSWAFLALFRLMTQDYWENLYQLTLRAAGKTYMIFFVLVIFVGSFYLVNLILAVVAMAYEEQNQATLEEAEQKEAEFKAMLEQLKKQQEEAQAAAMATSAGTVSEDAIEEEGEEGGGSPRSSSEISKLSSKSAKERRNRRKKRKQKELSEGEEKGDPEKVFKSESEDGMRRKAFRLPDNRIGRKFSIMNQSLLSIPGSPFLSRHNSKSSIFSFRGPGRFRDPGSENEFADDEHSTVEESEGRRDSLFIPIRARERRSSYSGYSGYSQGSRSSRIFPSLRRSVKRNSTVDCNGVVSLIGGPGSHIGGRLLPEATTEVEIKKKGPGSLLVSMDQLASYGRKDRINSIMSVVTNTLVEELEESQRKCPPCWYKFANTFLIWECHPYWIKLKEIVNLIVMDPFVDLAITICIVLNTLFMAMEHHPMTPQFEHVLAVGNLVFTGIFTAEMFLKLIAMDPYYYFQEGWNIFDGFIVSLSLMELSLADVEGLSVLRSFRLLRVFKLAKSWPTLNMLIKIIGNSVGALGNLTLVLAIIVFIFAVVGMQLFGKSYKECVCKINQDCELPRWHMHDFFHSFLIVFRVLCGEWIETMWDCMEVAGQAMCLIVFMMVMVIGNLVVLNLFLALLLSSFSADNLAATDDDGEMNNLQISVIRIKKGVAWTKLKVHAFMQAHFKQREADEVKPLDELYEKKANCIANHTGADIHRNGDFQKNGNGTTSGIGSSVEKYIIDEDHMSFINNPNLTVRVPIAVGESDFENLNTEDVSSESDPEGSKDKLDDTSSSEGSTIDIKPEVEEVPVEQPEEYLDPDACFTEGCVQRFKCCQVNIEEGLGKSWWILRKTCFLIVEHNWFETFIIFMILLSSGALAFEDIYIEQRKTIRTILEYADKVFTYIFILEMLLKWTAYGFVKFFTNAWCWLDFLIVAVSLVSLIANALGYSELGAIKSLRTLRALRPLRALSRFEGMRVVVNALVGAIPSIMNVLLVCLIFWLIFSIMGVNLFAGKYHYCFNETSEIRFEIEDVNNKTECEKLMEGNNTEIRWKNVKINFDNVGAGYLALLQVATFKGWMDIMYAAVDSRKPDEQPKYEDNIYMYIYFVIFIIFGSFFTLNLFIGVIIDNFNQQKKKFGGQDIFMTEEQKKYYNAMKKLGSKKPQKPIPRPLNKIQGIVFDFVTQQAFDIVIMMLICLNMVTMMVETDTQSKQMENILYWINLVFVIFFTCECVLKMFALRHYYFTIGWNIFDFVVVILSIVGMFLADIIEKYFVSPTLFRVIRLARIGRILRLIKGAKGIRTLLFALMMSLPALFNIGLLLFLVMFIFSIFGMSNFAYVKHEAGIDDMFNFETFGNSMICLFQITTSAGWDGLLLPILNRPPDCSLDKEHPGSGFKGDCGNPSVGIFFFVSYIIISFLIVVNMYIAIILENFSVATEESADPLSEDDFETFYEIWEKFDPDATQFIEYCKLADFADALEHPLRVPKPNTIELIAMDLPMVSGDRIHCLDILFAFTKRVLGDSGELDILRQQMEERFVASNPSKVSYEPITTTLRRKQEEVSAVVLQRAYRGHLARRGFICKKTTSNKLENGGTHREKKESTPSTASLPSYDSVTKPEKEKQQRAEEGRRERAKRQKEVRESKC

human Nav1.6 [2] = target: T1, human Nav1.6; assay: Peak INa tonic block (TB), automated patch clamp in HEK cells; type: cell-based; conditions: ratio of peak INa (TB) to persistent INa IC50
human Nav1.6 [3] = target: T1, human Nav1.6; assay: Peak INa use-dependent block (UDB-10 Hz), automated patch clamp in HEK cells; type: cell-based; conditions: for activity dependent block of peak INa (in words): hNav1.6; for Peak INa UDB-10 Hz Hill slope: use-dependent block
hNav1.6 = target: T2, hNav1.6 (Homo sapiens, UniProt Q9UQD0); assay: Peak INa voltage-dependent block (VDB), automated patch clamp in HEK cells; type: cell-based
T2 construct: expressed in transfected cells; host or cells: HEK cells
T2 sequence (Q9UQD0 whole entry): as above

[4] = test system: MES-induced seizures in male CD-1 mice; assay: Maximal electroshock (MES) induced seizure test, Example 3; type: in vivo, mouse; conditions: dose response
Procedure: The maximal electroshock (MES) test is a validated model for evaluating anti-seizure potential of compounds. […] The object of these studies was to evaluate the effect of Compound 1 (0.3, 1, 3 and 10 mg/kg p.o. (oral)) to attenuate MES-induced seizures in male CD-1 mice.
(§1) Food and water were available ad libitum.
Dosing solutions were prepared on each experiment day. […] VPA was prepared in saline (Vehicle 1). All solutions were protected from light. All compounds and vehicles were dosed at 10 ml/kg.
The MES test was carried out over two days with half of the mice from each treatment group being tested on each day. Mice were brought to the test room at least one hour before the start of the experiment. […] Mice were randomly assigned into one of the six treatment groups.
Animals were p.o. (oral) administered Compound 1 or 35% HPBCD (Vehicle 2) 30 minutes prior to the MES test or i.p. administered VPA or saline (Vehicle 1) 30 minutes prior to the MES test.
A Grass S88× (Grass Technologies of Astro-Med, Inc., West Warwick, RI) Stimulus Isolation Unit (A385, WPI Inc., USA) was set to deliver a 50 mA square-wave stimulus, with a 0.8 second duration, a pulse width of 10 msec, and a frequency of 50 Hz. […] Each mouse was observed continuously by individuals blinded to treatment conditions and results were recorded. […]
From these fitted curves, ED50 and EC50 values were calculated.

[5] = test system: spontaneous locomotor activity in male CD-1 mice; assay: Spontaneous locomotor activity (sLMA) test, Example 4; conditions: mouse, in vivo
Procedure: The Spontaneous Locomotor Activity (sLMA) test is a validated model for evaluating the potential motor side effects of compounds. The objective of this study was to evaluate the effect of Compound 1 (3, 5.6, 10 and 20 […], p.o.) on spontaneous locomotor activity (sLMA) in male CD-1 mice at 30 minutes post-dose.
as §1
Dosing solutions were prepared on each experiment day. […] All solutions were protected from light. Samples from dosing solutions were stored at 4° C.
The sLMA test was carried out over two days. Half of the mice from each treatment group was tested on each day.
Animals were p.o. administered Compound 1 or 35% HPBCD (vehicle) 30 minutes prior to the sLMA test.
All mice were anesthetized with CO2. […] The supernatant plasma was pipetted into Eppendorf tubes.

[6] = test system: MES-induced tonic hindlimb extension in male CD-1 mice; assay: MES acute seizure model, tonic hindlimb extension, Example 9; type: in vivo, mouse; conditions: for ED50: Mus musculus, read-out: ED50 value, protection from MES-induced tonic hindlimb extension
Procedure: The maximal electroshock (MES) acute seizure model of generalized seizures is validated for evaluating the anticonvulsant potential of compounds. […] The objective of this study was to evaluate the effect of Compound 1 on maximal electroshock induced seizure in male CD-1 mice.
Male CD-1 mice (Vital River, Beijing, China) approximately 6 weeks old were obtained for the study. Body weights were between 20.5 grams and 38.5 grams at the time the experiments were carried out. […] Food and water were available ad libitum.
Treatment was conducted using Compound 1 and 35% 2-hydroxypropyl-β-cyclodextrin (35% HPBCD, used as a negative control). Compound 1 stock solution was prepared fresh each experiment day in 35% HPBCD and protected from light. The stock solution was diluted with vehicle for lower doses.
Mice were brought to the test room at least one hour before the start of the experiment. Mice were administered valproate (VPA; 400 mg/kg, intraperitoneally); or vehicle (35% HPBCD, 10 mL/kg, intraperitoneally); or Compound 1 (0.3 mg/kg, 1 mg/kg, 3 mg/kg or 10 mg/kg, orally) 30 minutes prior to the MES test.
The electroshock apparatus was set to deliver a 50 mA square-wave stimulus, with a 0.8 second duration, a pulse width of 10 milliseconds, and a frequency of 50 Hz. A pair of custom stainless-steel electrodes were soaked in 0.2% agar, and then the subject received bilateral transauricular stimulation through ear-clip electrodes. During the stimulation, mice were manually restrained then released immediately into an observation cage where they were monitored continuously for 60 seconds by an observer blinded to treatment group.
Mice were anesthetized with CO2 and terminal plasma and brain tissue samples were collected. […] The supernatant plasma was pipetted into Eppendorf tubes.
All statistical analyses were conducted using GraphPad Prism 9.3. Means were combined and standard error was calculated using the Satterthwaite Approximation to combine standard deviations. […] ED50 and EC50 values were calculated from these fit curves.

[7] = test system: psychomotor seizures induced by 6-Hz electrical stimulation in CD-1 mice; assay: 6-Hz psychomotor seizure model (32 and 44 mA); type: in vivo, mouse; conditions: 600 mg/kg intraperitoneally
From the text: The 6-Hz test is a validated model of focal seizures for evaluating the anti-seizure potential of compounds. The 6-Hz seizure model can be performed at different stimulation intensities (32 or 44 mA), with the higher intensity (44 mA) used as a model of pharmacoresistant seizures. The positive control valproate is an approved anti-seizure medicine (ASM).
This study evaluated the efficacy of Compound 1 in attenuating psychomotor seizures induced by 6-Hz electrical stimulation at two different stimulation intensities (32 and 44 mA) in wild-type CD-1 mice. Psychomotor seizures are defined as the expression of at least one of the following behaviors: stun/immobility, forelimb clonus, straub tail or lateral head movement within 30 seconds of the stimulus. Protection is defined as a complete absence of the above behaviors within 30 seconds of the stimulus. Doses of Compound 1 used were 1 mg/kg, 3 mg/kg and 6 mg/kg administered orally. Valproate (600 mg/kg, administered intraperitoneally) was used as a positive control.
Male CD-1 mice (Charles River Laboratories; St. Constant, Quebec, CAN) were used for the study. Body weights at the time the experiment was carried out were 30-40 grams. The mice were group-housed in polycarbonate cages according to standard operating procedures. Animals were maintained on a 12-hour light/12 hour dark cycle, with all experimental activities occurring during the light phase. Food and water were available ad libitum. Mice acclimated to the test facility for at least 72 hours prior to testing.
Treatment was conducted using Compound 1 and 35% 2-hydroxypropyl-β-cyclodextrin (35% HPBCD, used as a negative control). Compound 1 stock solution was prepared fresh each experiment day in 35% HPBCD. […] Valproate was prepared fresh each experiment day in a vehicle of saline and dosed at 10 mL/kg.
Mice were administered vehicle (35% HPBCD), a single dose of Compound 1 (1 mg/kg, 3 mg/kg or 6 mg/kg) or valproate (600 mg/kg). Vehicle and Compound 1 were administered via oral gavage 30 minutes prior to […]. Valproate was administered as an intraperitoneal injection 60 minutes prior to the electrical stimulus.
Immediately prior to conducting the 6-Hz seizure test, a brief neurological assessment was performed. Each animal was visually assessed and received a score from 0 to 3 according to the following scoring system: neurological score of 0 corresponds to a normal status; neurological score of 1 corresponds to a modest decrease in spontaneous activity; neurological score of 2 corresponds to a marked decrease in spontaneous activity; and neurological score of 3 corresponds to loss of righting reflex.
Corneal electrodes moistened with saline (ECT unit 57800; Ugo Basile) were used to deliver the electrical stimulus (6-Hz, 0.2 millisecond pulse width, 3 seconds duration). The current delivered was either 32 mA or 44 mA. Immediately after the electrical stimulus, each mouse was monitored continuously for 30 seconds by an observer blinded to the treatment group. […] Mice were scored for the presence or absence of each seizure behavior, with a maximum total score of 4. […] At the end of the 6-Hz seizure test, plasma and brain samples were collected.
Mice were anesthetized with isoflurane, whole blood was collected via cardiac puncture and brains were harvested. […] Plasma and brain samples were stored at −80° C. and analyzed to determine levels of Compound 1. […]

[8] = 400 mg/kg intraperitoneally, listed as valproate

| Structure (SMILES) | Persistent INa Hill slope (human Nav1.6 [1]) | Peak INa TB Ratio to Pers. INa (human Nav1.6 [2]) | Peak INa UDB-10 Hz Ratio to Pers. INa (human Nav1.6 [3]) | Peak INa UDB-10 Hz Hill slope (human Nav1.6 [3]) | Peak INa VDB Hill slope (hNav1.6) | Peak INa VDB Ratio to Pers. INa (hNav1.6) | ED50 ([6]; male CD-1 mice) | further results |
| --- | --- | --- | --- | --- | --- | --- | --- | --- |
| NC(=O)N1c2ccccc2C=Cc2ccccc21 [Carbamazepine, carbamazepine] | (1.1) | 30 | 18 | (0.9) | (0.9) | 0.6 | 3.8 to 5.4 mg/kg | persistent INa preference to TB (human Nav1.6 [1]): 30 ×; inhibition of and preference for persistent INa (in words) (human Nav1.6 [1]): lower potency and preference for persistent INa; UDB preference to TB (human Nav1.6 [3]): no UDB observed; activity dependent block of peak INa (in words) (human Nav1.6 [3]): minimal activity dependent block of peak INa; protection against MES-induced seizures (in words) [4]: dose-dependent protection from MES-induced seizures; sLMA dose response (in words) [5]: dose-dependent reductions in sLMA |
| NC(=O)O[C@@H](Cn1ncnn1)c1ccccc1Cl [Cenobamate, cenobamate] | (1.1) | 24 | 11 | (0.7) | (0.9) | 0.9 | 3.8 to 5.4 mg/kg | persistent INa preference to TB (human Nav1.6 [1]): 24 ×; UDB preference to TB (human Nav1.6 [3]): 2.3 ×; ED50 value, protection from MES-induced tonic hindlimb extension ([6]; male CD-1 mice): 4.1 mg/kg |
| COC[C@@H](NC(C)=O)C(=O)NCc1ccccc1 [Lacosamide, lacosamide] | (0.9) |  | 0.8 | (1.3) | (1.2) | 0.3 |  |  |
| Nc1nnc(-c2cccc(Cl)c2Cl)c(N)n1 [Lamotrigine, lamotrigine] | (1.0) |  |  | (1.0) | (0.9) |  | 3.8 to 5.4 mg/kg | inhibition of and preference for persistent INa (in words) (human Nav1.6 [1]): lower potency and preference for persistent INa; activity dependent block of peak INa (in words) (human Nav1.6 [3]): minimal activity dependent block of peak INa; protection against MES-induced seizures (in words) [4]: dose-dependent protection from MES-induced seizures; sLMA dose response (in words) [5]: dose-dependent reductions in sLMA |
| NC(=O)N1c2ccccc2CC(=O)c2ccccc21 [Oxcarbazepine, oxcarbazepine] | (1.0) | 8 |  |  | (1.1) | 0.3 |  |  |
| O=C1NC(=O)C(c2ccccc2)(c2ccccc2)N1 [Phenytoin, phenytoin] | (0.8) |  | 15 | (0.6) | (1.0) | 0.8 |  |  |
| CCCC(CCC)C(=O)O [Valproic acid] |  |  |  |  |  |  |  | sedation before MES test (in words) ([6]; 400 mg/kg intraperitoneally, listed as Valproate): mild to moderate sedation; protection against MES-induced hindlimb extension (in words) [6, 8]: all mice n=24 were seizure-free; also recorded: protected mice from MES-induced tonic hindlimb extension; sedation before MES test (in words) [6, 8]: nearly all valproate-treated mice showed mild to moderate sedation; average neurological score [7]: 1.2; neurological scores / spontaneous activity ([7]; listed as valproate): modest to marked decrease in spontaneous activity |
| Cc1cc(N2CCc3cc(F)ccc3C2)cc(C)c1NC(=O)CC(C)(C)C [XEN1101] |  |  |  |  |  |  | 3.8 to 5.4 mg/kg |  |
